The values that follow come from patent US20180092866A1, “SUBSTITUTED N-([1,1'-BIPHENYL]-3-YL)-[1,1'-BIPHENYL]-3-CARBOXAMIDE ANALOGS AS INHIBITORS FOR BETA-CATENIN/B-CELL LYMPHOMA 9 INTERACTIONS” (University of Utah Research Foundation, priority 2015, published 2018).

Where a name gives a salt, the structure may show the parent alone.

The first assay addresses T1, β-catenin/BCL9 protein-protein interactions (Homo sapiens, UniProt P35222).
T1 construct: C-terminally His6-tagged wild-type or mutant β-catenin (residues 138-686) proteins; made in house; host or cells: E. coli BL21 DE3
T1 sequence (P35222 138-686): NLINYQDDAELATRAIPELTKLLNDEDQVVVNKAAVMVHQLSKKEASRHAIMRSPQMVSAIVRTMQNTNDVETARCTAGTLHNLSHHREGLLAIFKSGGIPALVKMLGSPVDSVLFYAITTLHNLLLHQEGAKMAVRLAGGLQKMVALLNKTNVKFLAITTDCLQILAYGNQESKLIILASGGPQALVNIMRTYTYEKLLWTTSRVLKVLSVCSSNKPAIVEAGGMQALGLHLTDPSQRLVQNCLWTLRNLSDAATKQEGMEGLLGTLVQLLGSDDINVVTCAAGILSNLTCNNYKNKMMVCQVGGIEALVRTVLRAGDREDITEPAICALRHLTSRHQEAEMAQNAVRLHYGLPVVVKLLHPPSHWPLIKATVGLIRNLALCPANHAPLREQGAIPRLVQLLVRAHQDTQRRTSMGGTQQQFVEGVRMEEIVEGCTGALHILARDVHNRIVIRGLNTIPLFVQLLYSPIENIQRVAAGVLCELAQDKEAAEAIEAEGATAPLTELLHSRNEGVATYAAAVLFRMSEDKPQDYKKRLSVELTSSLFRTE
Nature of the assay: AlphaScreen competitive inhibition assay, wild-type β-catenin/BCL9. Type of assay: binding. The settings on record: AlphaScreen assay, comparison with named compound. The method, then: The purity of the wild-type and mutant β-catenin proteins was all greater than 95% as determined by the SDS-PAGE gel analysis. Both the wild-type and mutant β-catenin proteins are stable under the testing conditions. Native non-denaturing gel electrophoresis was performed to confirm the homogeneity of the purified proteins. Experiments were performed in white opaque 384-well plates from PerkinElmer, and the samples were read on a Synergy 2 plate reader (Biotek) with a sensitivity setting of 200 using AlphaScreen protocol with excitation at 680 nm and emission at 570 nm. All dilutions were made in 1×assay buffer containing 25 mM HEPES (pH=7.0), 100 mM NaCl, 0.01% Triton X-100, and 0.1% BSA. In the AlphaScreen competitive inhibition assay, 40 nM of C-terminally His6-tagged wild-type or mutant β-catenin (residues 138-686) proteins was incubated with 5 nM of N-terminal biotinylated human BCL9 26-mer (residues 350-375) for 30 min at 4° C., and then different concentrations of the tested inhibitors in the assay buffer were added to make a final volume of 20 μL. The mixture was incubated at 4° C. for 2 h. The donor and acceptor beads were added to a final concentration of 10 μg/mL in 25 μL of assay buffer. The mixture was incubated at 4° C. for 1 h. The IC50 value was determined by nonlinear least-square analysis of GraphPad Prism 5.0. […] The Ki values were derived from the IC50 values by a reported method (Nikolovska-Coleska et al. (2004) Anal. Biochem. […]: 261-273). Experiments were performed in triplicate and carried out in the presence of 1% DMSO.
(In Alpha technology, singlet oxygen from a donor bead excites a nearby acceptor bead.)
Turning to `Cl.NCCOc1ccc(C(=O)Nc2cccc(-c3ccc(F)cc3)c2)cc1-c1ccc(F)c(F)c1` [Compound 13, 2-((3′,4′-Difluoro-5-((4′-fluoro-[1,1′-biphenyl]-3-yl)carbamoyl)-[1,1′-biphenyl]-2-yl)oxy) ethanaminium chloride], the “relative inhibitory potency for β-catenin/BCL9 PPIs (in words)” value is “higher potency than 14”. As for `Cl.NCCOc1ccc(C(=O)Nc2cccc(-c3ccc(F)cc3)c2)cc1-c1ccc(F)cc1` [Compound 9, 2-((4′-Fluoro-5-((4′-fluoro-[1,1′-biphenyl]-3-yl)carbamoyl)-[1,1′-biphenyl]-2-yl)oxy) ethanaminium chloride], the “relative inhibitory potency for β-catenin/BCL9 PPIs (in words)” value is “higher potency than 14”.

Still in this assay, the particulars now being: AlphaScreen assay, relative to compound 4.
Take `Cl.NCCCc1ccc(C(N)=O)cc1-c1ccc(F)cc1` [Compound 6, 3-(5-Carbamoyl-4′-fluoro-[1,1′-biphenyl]-2-yl) propan-1-aminium chloride]: the “fold more potent than 4” value worked out at 5 fold.

The assay is the same for the next values; noted with them: AlphaScreen assay, relative to compound 17.
Regarding `O=C(Nc1ccc(OCCO)c(-c2ccc(F)cc2)c1)c1ccc(OCCO)c(-c2ccc(F)c(F)c2)c1` [Compound 18, 3′,4′-Difluoro-N-(4′-fluoro-6-(2-hydroxyethoxy)-[1,1′-biphenyl]-3-yl)-6-(2-hydroxyethoxy)-[1,1′-biphenyl]-3-carboxamide], the “fold less potent than 17” value is 6 fold.

Still in this assay, the particulars now being: wild-type β-catenin (residues 138-686)/biotinylated BCL9 26-mer; Ki derived from IC50; mean ± SD.
For orientation: Ki means the equilibrium dissociation constant of an inhibitor or competing ligand from its target. Turning to `NCCOc1ccc(C(=O)Nc2cccc(-c3ccc(Cl)cc3F)c2)cc1-c1ccc(F)cc1` [Compound 12, 2-((5-((4′-Chloro-2′-fluoro-[1,1′-biphenyl]-3-yl)carbamoyl)-4′-fluoro-[1,1′-biphenyl]-2-yl)oxy) ethanaminium chloride], the Ki worked out at 149 ± 5.69 µM.

With `NCCOc1ccc(C(=O)Nc2cccc(-c3ccc(F)cc3)c2)cc1-c1ccsc1` [Compound 15, 2-(4-((4′-Fluoro-[1,1′-biphenyl]-3-yl)carbamoyl)-2-(thiophen-3-yl)phenoxy) ethanaminium chloride], the Ki is 32.4 ± 4.24 µM.

`CS(=O)(=O)Nc1cccc(C#Cc2cc(NC(=O)c3ccc(O[C@H]4CCNC4)c(-c4ccc(F)c(F)c4)c3)ccc2O[C@H]2CCNC2)c1` [Compound 101]: the Ki was found to be 56.2 ± 7.64 µM. The same measure, in the same setting: the result for `CS(=O)(=O)Nc1cccc(-c2cc(NC(=O)c3ccc(O[C@H]4CCNC4)c(-c4ccc(F)c(F)c4)c3)ccc2O[C@H]2CCNC2)c1` [Compound 102] reads 126 ± 10.3 µM; that for `O=C(Nc1cnc(O[C@H]2CCNC2)c(-c2ccc(F)cc2)c1)c1ccc(O[C@H]2CCNC2)c(-c2ccc(F)c(F)c2)c1` [Compound 84a, 3′,4′-Difluoro-N-(5-(4-fluorophenyl)-6-((S)-pyrrolidin-3-yloxy)pyridin-3-yl)-6-((S)-pyrrolidin-3-yloxy)-[1,1′-biphenyl]-3-carboxamide dihydrochloride], 78.6 ± 10.4 µM; that for `O=C(Nc1ccc(O[C@H]2CCNC2)c(-c2ccc(F)cc2)c1)c1ccc(O[C@H]2CCNC2)c(-c2ccc3cc(F)ccc3c2)c1` [Compound 96], 7.17 ± 1.3 µM. `Cc1cccc(-c2cc(NC(=O)c3ccc(O[C@H]4CCNC4)c(-c4ccc(F)c(F)c4)c3)ccc2O[C@H]2CCNC2)c1` [Compound 91b, 3′,4′-Difluoro-N-(3′-methyl-6-((S)-pyrrolidin-3-yloxy)-[1,1′-biphenyl]-3-yl)-6-((S)-pyrrolidin-3-yloxy)-[1,1′-biphenyl]-3-carboxamide dihydrochloride]: the Ki is 40.8 ± 5.94 µM. Consider `O=C(Nc1ccc(O[C@@H]2CCNC2)c(-c2ccc(F)cc2)c1)c1ccc(O[C@@H]2CCNC2)c(-c2ccc(F)c(F)c2)c1` [Compound 26, (R)-3-((3′,4′-difluoro-5-((4′-fluoro-6-(((R)-pyrrolidin-1-ium-3-yl)oxy)-[1,1′-biphenyl]-3-yl)carbamoyl)-[1,1′-biphenyl]-2-yl)oxy) pyrrolidin-1-ium chloride], for which the Ki was determined as 4.08 ± 0.355 µM.

Consider `O=C(Nc1ccc(O[C@H]2CCNC2)c(-c2ccccc2C(F)(F)F)c1)c1ccc(O[C@H]2CCNC2)c(-c2ccc(F)c(F)c2)c1` [Compound 91d, 3′,4′-Difluoro-6-((S)-pyrrolidin-3-yloxy)-N-(6-((S)-pyrrolidin-3-yloxy)-2′-(trifluoromethyl)-[1,1′-biphenyl]-3-yl)-[1,1′-biphenyl]-3-carboxamide dihydrochloride], for which the Ki was found to be 54.8 ± 6.24 µM. On the same count and under the same terms, the result for `O=C(Nc1ccc(OC2CNC2)c(-c2ccc(F)cc2)c1)c1ccc(OC2CNC2)c(-c2ccc(F)c(F)c2)c1` [Compound 22, 3-((5-(6-(azetidin-1-ium-3-yloxy)-3′,4′-difluoro-[1,1′-biphenyl]-3-ylcarboxamido)-4′-fluoro-[1,1′-biphenyl]-2-yl)oxy)azetidin-1-ium chloride] reads 17 ± 1.99 µM.

Consider `O=C(Nc1ccc(O[C@H]2CCNC2)c(-c2ccc(F)cc2)c1)c1ccc(O[C@H]2CCNC2)c(-c2ccc3ccsc3c2)c1` [Compound 97], for which the Ki was found to be 9.5 ± 1.12 µM.

Consider `N#Cc1ccc(-c2cc(NC(=O)c3ccc(O[C@H]4CCNC4)c(-c4ccc(F)c(F)c4)c3)ccc2O[C@H]2CCNC2)cc1` [Compound 91f, N-(4′-cyano-6-((S)-pyrrolidin-3-yloxy)-[1,1′-biphenyl]-3-yl)-3′,4′-difluoro-6-((S)-pyrrolidin-3-yloxy)-[1,1′-biphenyl]-3-carboxamide dihydrochloride], for which the Ki is 29.5 ± 5.77 µM.

With `NCCOc1ccc(C(=O)Nc2cccc(-c3ccc(Cl)c(F)c3)c2)cc1-c1ccc(F)cc1` [Compound 11, 2-((5-((4′-Chloro-3′-fluoro-[1,1′-biphenyl]-3-yl)carbamoyl)-4′-fluoro-[1,1′-biphenyl]-2-yl)oxy) ethanaminium chloride], the Ki was 87.1 ± 4.95 µM. Same read-out and setting: the result for `Cl.NCCOc1ccc(C(=O)Nc2cccc(-c3ccc(F)cc3)c2)cc1-c1ccc(F)c(F)c1` [Compound 13, 2-((3′,4′-Difluoro-5-((4′-fluoro-[1,1′-biphenyl]-3-yl)carbamoyl)-[1,1′-biphenyl]-2-yl)oxy) ethanaminium chloride] reads 29.3 ± 3.85 µM; that for `NC(=O)c1cccc(-c2cc(NC(=O)c3ccc(O[C@H]4CCNC4)c(-c4ccc(F)c(F)c4)c3)ccc2O[C@H]2CCNC2)c1` [Compound 91g, N-(3′-carbamoyl-6-((S)-pyrrolidin-3-yloxy)-[1,1′-biphenyl]-3-yl)-3′,4′-difluoro-6-((S)-pyrrolidin-3-yloxy)-[1,1′-biphenyl]-3-carboxamide dihydrochloride], 162 ± 8.69 µM; that for `O=C(Nc1ccc(O[C@H]2CCNC2)c(-c2ccc(F)cc2)c1)c1cnc(O[C@H]2CCNC2)c(-c2ccc(F)c(F)c2)c1` [Compound 84b, 5-(3,4-difluorophenyl)-N-(4′-fluoro-6-((S)-pyrrolidin-3-yloxy)-[1,1′-biphenyl]-3-yl)-6-((S)-pyrrolidin-3-yloxy)nicomide dihydrochloride], 84.2 ± 14.8 µM.

Regarding `O=C(O)c1cccc(-c2cc(NC(=O)c3ccc(O[C@H]4CCNC4)c(-c4ccc(F)c(F)c4)c3)ccc2O[C@H]2CCNC2)c1` [Compound 98], the inhibition constant (Ki) was 180 ± 4.84 µM.

In the case of `O=C(Nc1ccc(O[C@H]2CCNC2)c(-c2cccc(-c3nn[nH]n3)c2)c1)c1ccc(O[C@H]2CCNC2)c(-c2ccc(F)c(F)c2)c1` [Compound 91k, 3′,4′-Difluoro-6-((S)-pyrrolidin-3-yloxy)-N-(6-((S)-pyrrolidin-3-yloxy)-3′-(2h-tetrazol-5-yl)-[1,1′-biphenyl]-3-yl)-[1,1′-biphenyl]-3-carboxamide dihydrochloride], the Ki is 3.91 ± 0.734 µM. For the molecule `Cl.NCCOc1ccc(C(=O)Nc2cccc(-c3ccc(F)cc3)c2)cc1-c1ccc(F)cc1` [Compound 9, 2-((4′-Fluoro-5-((4′-fluoro-[1,1′-biphenyl]-3-yl)carbamoyl)-[1,1′-biphenyl]-2-yl)oxy) ethanaminium chloride], the Ki came out at 33.6 ± 4.34 µM. For the molecule `N#Cc1cccc(-c2cc(NC(=O)c3ccc(O[C@H]4CCNC4)c(-c4ccc(F)c(F)c4)c3)ccc2O[C@H]2CCNC2)c1` [Compound 91e, N-(3′-cyano-6-((S)-pyrrolidin-3-yloxy)-[1,1′-biphenyl]-3-yl)-3′,4′-difluoro-6-((S)-pyrrolidin-3-yloxy)-[1,1′-biphenyl]-3-carboxamide dihydrochloride], the inhibition constant Ki is 25.9 ± 5.58 µM. The same measure, in the same setting: the result for `O=C(Nc1ccc(OCCO)c(-c2ccc(F)cc2)c1)c1ccc(OCCO)c(-c2ccc(F)c(F)c2)c1` [Compound 18, 3′,4′-Difluoro-N-(4′-fluoro-6-(2-hydroxyethoxy)-[1,1′-biphenyl]-3-yl)-6-(2-hydroxyethoxy)-[1,1′-biphenyl]-3-carboxamide] reads 36.8 ± 2.72 µM.

On to `O=C(Nc1ccc(O[C@H]2CCNC2)c(-c2ccc(F)nc2)c1)c1ccc(O[C@H]2CCNC2)c(-c2ccc(F)c(F)c2)c1` [Compound 91m, 3′,4′-Difluoro-N-(3-(6-fluoropyridin-3-yl)-4-((S)-pyrrolidin-3-yloxy)phenyl)-6-((S)-pyrrolidin-3-yloxy)-[1,1′-biphenyl]-3-carboxamide dihydrochloride], for which the Ki was 124 ± 10.4 µM.
